# Measurements as given in patent publication US20120093875A1, “AMINOCYCLITOL COMPOUNDS, PROCESS FOR OBTAINING THEM AND USES” (priority 2009, published 2012).
# What was measured:
# [1] = tested on: mouse iNKT cells; assay: Mouse iNKT cells expansion in vitro in spleen cell cultures (flow cytometry, TCR/NK1.1); type: cell-based
# Method: The compounds were assayed at a final concentration of 1 μg/mL in complete medium with 1% of methanol (MeOH), while the αGalCer (αGC) was used at 0.2 μg/mL. The cell cultures were labeled with anti-NK1-PE and anti-TCR-FITC specific antibodies. The percentages of NKT cells (double positive cells) were calculated within the population of electronically selected T cells.
# First, the ability to induce the specific proliferation of mouse iNKT was determined by culture experiments in vitro. For that, spleen cells derived from female B57Bl/6 mice between 10 and 20 weeks were isolated and the red blood cells were removed by hypotonic lysis. The spleen cells are distributed in 96 U-well plates, between 100,000 and 500,000 cells per well, and incubated in the presence of each of the compounds 1a, 1b, 2b, 3a, 3b and 4b at a final concentration of 1 μg/mL in RPMI-1640 growth medium, 10% fetal serum, […], 1% methanol. […] The culture was analyzed at day 5 or 6 by flow cytometry, using TCR and NK1.1 specific antibodies. In the presence of the control αGalCer:
# (§1) Mouse C57BL/6 spleen cells are obtained by isolation of the spleen of female mice from 8 to 12 weeks of age, according to protocols approved by the Animal and Human Research Ethics Committee of the Autonomous University of Barcelona. The spleens are disaggregated with the plunger of a syringe in […] in a laminar flow hood, removing the red blood cells with lysis buffer (Sigma-Aldrich). 5×10^5 cells are placed in the wells of 96 U-well plates, and incubated with 100 ng/mL of α-GalCer, OCH, or 1 μg/mL of the compounds 1a, 1b, 2b, 3a, 3b, and 4b in RPMI-1640 medium supplemented with 10% fetal calf serum (FCS) (Labclinics), 50 μM 2-mercaptoethanol, 2 mM L-glutamine and 1% methanol (non-toxic concentration for the cells), and grown at 37° C. in a 5% CO2 humidified atmosphere. 25 U/mL of recombinant human interleukin 2 are added at day 2 of culture.
# The spleen cells cultures grown in the indicated conditions are analyzed by flow cytometry in a FACS Calibur (Beckton Dickinson Bioscience) for quantifying the levels of proliferation of the iNKTs after incubation with the compounds 1a, 1b, 2b, 3a, 3b, and 4b. The stimulated spleen cultures are washed and preincubated with 50 μl of staining medium (PBS with 2% FCS) with anti-CD16 (clone 2.4G2) for 20 min in ice. Subsequently the cells are washed and resuspended in staining medium with mouse anti-TCR antibody conjugated to fluorescein isothiocyanate (FITC) (clone H57-597, BD-Pharmingen) and anti-NK1.1 conjugated to avidin (clone PK-136, BD-Pharmingen) for 30 min in ice. […] The samples are analyzed in the flow cytometer (FACSCalibur) and the data are processed using the program CellQuest (BD Bioscience).
# [2] = tested on: iNKT cells; assay: Th1/Th2 deviation of the iNKT response (IFNγ versus IL-4 production); type: cell-based, mouse; settings: for type of cytokine response (Th1/Th2 profile): IL-4 versus IFNγ induction in mouse spleen cell cultures; for IFNγ/IL-4 ratio: cytokines in mouse spleen cell culture supernatants (ELISA)
# Text: (§2) The CD1d glycolipidic ligands induce a deviation in the production of cytokines by iNKT cells to Th1 or Th2, depending on its ability to be presented by CD1d, and its structural characteristics recognized by the TCR. For quantifying more precisely the immunostimulating ability of the compound 4b and determining if it induces a deviation in the iNKT response, its ability to induce the production of IFNγ and IL-4 is titrated in the cell cultures using different concentrations, and comparing the same with the two prototypical ligands, αGalCer and OCH (dissolved in MeOH), that have been described as inducers of a Th1 and Th2 response, respectively.
# as §1
# For the determinations of IL-4 and IFNγ, culture supernatants are taken at day 4 or day 7, and stored at −70° C. or used immediately in ELISA assays (eBioscience) for quantifying the cytokines, following the manufacturer's instructions. Standard curves are generated with the recombinant cytokines included in the kit. The statistical significance of the results is analyzed using a t-Student test, considering significant differences with p<0.01. The compounds 1a, 1b, 2b, 3a, 3b, and 4b are resuspended in 100% methanol or 100% dimethyl sulfoxide at a concentration of 1 mg/mL, and a 1/10 use dilution in PBS is prepared, with a final concentration of 100 μg/mL. The compounds are heated at 56° C. for 10-30 min and sonicated, before being diluted in complete growth medium, with a final concentration of 1% vehicle in the cellular assay.
# [3] = tested on: IL-4 production by iNKT cells; assay: IL-4 production in mouse spleen cell cultures, dose-response (ELISA); type: cell-based; settings: dose-response (FIG. 3b)
# Text: (§3) Quantifying of the production of IFNγ (FIG. 3A) and IL-4 (FIG. 3B) after the stimulation in vitro of cultures of mouse spleen cells containing lipidic agonists of iNKT cells in a dose-response assay.
# as §2, with “respectively. […]” for “respectively.”
# (§4) For the determinations of IL-4 and IFNγ, culture supernatants are taken at day 4 or day 7, and stored at −70° C. or used immediately in ELISA assays (eBioscience) for quantifying the cytokines, following the manufacturer's instructions. […] The statistical significance of the results is analyzed using a t-Student test, considering significant differences with p<0.01. […]
# [4] = tested on: IFNγ production by iNKT cells; assay: IFNγ production in mouse spleen cell cultures, dose-response (ELISA); type: cell-based; settings: dose-response (FIG. 3a)
# Text: as §3, §2, §1, §4
# [5] = compound 1 μg/mL, 1% methanol, IL-2 at day 2, analysed day 5 or 6
structure (smiles),measurement,setting,value
CCCCCCCCCCCCCC[C@@H](O)[C@@H](O)[C@H](CNC1[C@H](O)[C@H](O)C(O)[C@H](O)[C@H]1O)NC(=O)CCCCCCC (some centres unmarked) [Compound 3b],expansion of iNKTs,[1]; [5],approximately 2 times
"CCCCCCCCCCCCCCCCCCCCCCCCCC(=O)N[C@@H](CO[C@H]1O[C@H](CO)[C@H](O)[C@H](O)[C@H]1O)[C@H](O)[C@H](O)CCCCCCCCCCCCCC [αGalCer, α-galactosylceramide, reference compound]",expansion of the population of NKT cells over the baseline conditions,"[1]; αGalCer control (0.2 μg/mL per FIG. 1), 1% methanol, IL-2 at day 2, analysed day 5 or 6",more than 5 times
same,type of cytokine response (Th1/Th2 profile),[2],high Th1 profile
same,IFNγ/IL-4 ratio,[2],10
"CCCCCCCCCCCCCCCCCCCCCCCCCC(=O)N[C@@H](CN[C@H]1C[C@H](O)[C@@H](O)[C@H](O)[C@H]1O)[C@H](O)[C@H](O)CCCCCCCCCCCCCC [Compound 4b, (2S,3S,4R)-2-hexacosanamide-1-(1′S,2′S,3′R,4′R,5′S)-2,3,4,5,-tetrahydroxycyclohexylaminooctadecane-3,4-diol]",NKT cells as percentage of the T cells after incubation,"[1]; compound 1 μg/mL, increase from 1.2% baseline, day 5 or 6 (FIG. 1)",6.2%
same,concentration at which induction of IL-4 is maintained with high efficiency,[3],100 ng/mL
same,concentration at which induction of IL-4 is still significant,[3],33 ng/mL
same,concentration at which production of IFNγ is induced,[4],333 ng/mL
same,concentration at which the maximal IFNγ response plateau is reached,[4],1 µg/mL
same,magnitude of the maximal IFNγ response compared with α-GalCer,[4],lower magnitude
same,type of cytokine response (Th1/Th2 profile),[2],preferably Th2-type response
same,IFNγ/IL-4 ratio,[2],2
same,response compared with the Th2 response prototype OCH,"[2]; mouse spleen cell cultures, dose-response",lower response
CCCCCCCCCCCCCCCCCCCCCCCCCC(=O)N[C@@H](CNC1[C@H](O)[C@H](O)C(O)[C@H](O)[C@H]1O)[C@H](O)[C@H](O)CCCCCCCCCCCCCC (some centres unmarked) [Compound 3a],expansion of iNKTs,[1]; [5],approximately 2 times
